Measurements as given in PubChem BioAssay (NCI).
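Cultured in 96-well plates, cells were exposed to test compound for 48 hours across five concentrations. Here, GI50 denotes the concentration required for 50% inhibition of growth. TGI is the concentration that stops growth completely.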

Columns and labels:
Assay in all cases: NCI tumour cell line growth inhibition, 48 h
SF-539 CNS = tested on: SF-539 CNS
ACHN renal = tested on: ACHN renal
OVCAR-4 ovarian = tested on: OVCAR-4 ovarian
OVCAR-5 ovarian = tested on: OVCAR-5 ovarian
U251 CNS = tested on: U251 CNS
SK-MEL-5 melanoma = tested on: SK-MEL-5 melanoma
HS 578T breast = tested on: HS 578T breast
MDA-MB-435 = tested on: MDA-MB-435
MDA-MB-231 breast = tested on: MDA-MB-231 breast
NCI-H460 lung = tested on: NCI-H460 lung
HL-60(TB) leukemia = tested on: HL-60(TB) leukemia
PC-3 prostate = tested on: PC-3 prostate
SK-MEL-28 melanoma = tested on: SK-MEL-28 melanoma
TK-10 renal = tested on: TK-10 renal
HCT-116 colon = tested on: HCT-116 colon
LOX IMVI melanoma = tested on: LOX IMVI melanoma
OVCAR-8 ovarian = tested on: OVCAR-8 ovarian
HCT-15 colon = tested on: HCT-15 colon
SW-620 colon = tested on: SW-620 colon
UACC-257 melanoma = tested on: UACC-257 melanoma
SF-295 CNS = tested on: SF-295 CNS
UACC-62 melanoma = tested on: UACC-62 melanoma
SNB-19 CNS = tested on: SNB-19 CNS
KM12 colon = tested on: KM12 colon
NCI/ADR-RES ovarian = tested on: NCI/ADR-RES ovarian
DU-145 prostate = tested on: DU-145 prostate
MCF7 breast = tested on: MCF7 breast
M14 melanoma = tested on: M14 melanoma
NCI-H23 lung = tested on: NCI-H23 lung
OVCAR-3 ovarian = tested on: OVCAR-3 ovarian
EKVX NSCLC = tested on: EKVX NSCLC
RXF 393 renal = tested on: RXF 393 renal
SNB-75 CNS = tested on: SNB-75 CNS
SN12C renal = tested on: SN12C renal
T-47D breast = tested on: T-47D breast
HOP-62 NSCLC = tested on: HOP-62 NSCLC
HOP-92 NSCLC = tested on: HOP-92 NSCLC
RPMI-8226 leukemia = tested on: RPMI-8226 leukemia
HT29 colon = tested on: HT29 colon
SK-OV-3 ovarian = tested on: SK-OV-3 ovarian
K-562 leukemia = tested on: K-562 leukemia
A498 renal = tested on: A498 renal
786-0 renal = tested on: 786-0 renal
A549 NSCLC = tested on: A549 NSCLC
HCC-2998 colon = tested on: HCC-2998 colon
COLO 205 colon = tested on: COLO 205 colon
BT-549 breast = tested on: BT-549 breast
SF-268 CNS = tested on: SF-268 CNS
MALME-3M melanoma = tested on: MALME-3M melanoma
CAKI-1 renal = tested on: CAKI-1 renal

`COc1ccc(-c2nc3c(-c4ccccc4)nc(-c4ccccc4)cn3c2-c2ccc(OC)cc2)cc1` was tested, and the GI50 (SF-539 CNS) was 88.2 µM, the TGI (SF-539 CNS) was > 100 µM and the GI50 (ACHN renal) was > 100 µM. The TGI (ACHN renal) was > 100 µM, the GI50 (OVCAR-4 ovarian) was > 100 µM and the TGI (OVCAR-4 ovarian) was > 100 µM. For the same compound, the GI50 (OVCAR-5 ovarian) was > 100 µM, the TGI (OVCAR-5 ovarian) was > 100 µM and the GI50 (U251 CNS) was > 100 µM. For the same compound, the TGI (U251 CNS) was > 100 µM, the GI50 (SK-MEL-5 melanoma) was > 100 µM and the TGI (SK-MEL-5 melanoma) was > 100 µM. The GI50 (HS 578T breast) was 30.6 µM, the TGI (HS 578T breast) was > 100 µM and the GI50 (MDA-MB-435) was > 100 µM. For the same compound, the TGI (MDA-MB-435) was > 100 µM, the GI50 (MDA-MB-231 breast) was 68.5 µM and the TGI (MDA-MB-231 breast) was > 100 µM. For the same compound, the GI50 (NCI-H460 lung) was > 100 µM, the TGI (NCI-H460 lung) was > 100 µM and the GI50 (HL-60(TB) leukemia) was 3.28 µM. For the same compound, the TGI (HL-60(TB) leukemia) was 52.6 µM, the GI50 (PC-3 prostate) was > 100 µM and the TGI (PC-3 prostate) was > 100 µM. For the same compound, the GI50 (SK-MEL-28 melanoma) was > 100 µM, the TGI (SK-MEL-28 melanoma) was > 100 µM and the GI50 (TK-10 renal) was > 100 µM. For the same compound, the TGI (TK-10 renal) was > 100 µM, the GI50 (HCT-116 colon) was > 100 µM and the TGI (HCT-116 colon) was > 100 µM. For the same compound, the GI50 (LOX IMVI melanoma) was > 100 µM, the TGI (LOX IMVI melanoma) was > 100 µM and the GI50 (OVCAR-8 ovarian) was > 100 µM. The TGI (OVCAR-8 ovarian) was > 100 µM, the GI50 (HCT-15 colon) was > 100 µM and the TGI (HCT-15 colon) was > 100 µM. For the same compound, the GI50 (SW-620 colon) was > 100 µM, the TGI (SW-620 colon) was > 100 µM and the GI50 (UACC-257 melanoma) was > 100 µM. The TGI (UACC-257 melanoma) was > 100 µM, the GI50 (SF-295 CNS) was > 100 µM and the TGI (SF-295 CNS) was > 100 µM. The GI50 (UACC-62 melanoma) was 88.6 µM, the TGI (UACC-62 melanoma) was > 100 µM and the GI50 (SNB-19 CNS) was > 100 µM. For the same compound, the TGI (SNB-19 CNS) was > 100 µM, the GI50 (KM12 colon) was > 100 µM and the TGI (KM12 colon) was > 100 µM. For the same compound, the GI50 (NCI/ADR-RES ovarian) was > 100 µM, the TGI (NCI/ADR-RES ovarian) was > 100 µM and the GI50 (DU-145 prostate) was > 100 µM. The TGI (DU-145 prostate) was > 100 µM, the GI50 (MCF7 breast) was > 100 µM and the TGI (MCF7 breast) was > 100 µM. For the same compound, the GI50 (M14 melanoma) was > 100 µM, the TGI (M14 melanoma) was > 100 µM and the GI50 (NCI-H23 lung) was > 100 µM. The TGI (NCI-H23 lung) was > 100 µM, the GI50 (OVCAR-3 ovarian) was > 100 µM and the TGI (OVCAR-3 ovarian) was > 100 µM. The GI50 (EKVX NSCLC) was > 100 µM, the TGI (EKVX NSCLC) was > 100 µM and the GI50 (RXF 393 renal) was 62.7 µM. The TGI (RXF 393 renal) was > 100 µM, the GI50 (SNB-75 CNS) was 26.8 µM and the TGI (SNB-75 CNS) was > 100 µM. The GI50 (SN12C renal) was > 100 µM, the TGI (SN12C renal) was > 100 µM and the GI50 (T-47D breast) was > 100 µM. For the same compound, the TGI (T-47D breast) was > 100 µM, the GI50 (HOP-62 NSCLC) was 40.6 µM and the TGI (HOP-62 NSCLC) was > 100 µM. For the same compound, the GI50 (HOP-92 NSCLC) was 54.6 µM, the TGI (HOP-92 NSCLC) was > 100 µM and the GI50 (RPMI-8226 leukemia) was > 100 µM. The TGI (RPMI-8226 leukemia) was > 100 µM, the GI50 (HT29 colon) was > 100 µM and the TGI (HT29 colon) was > 100 µM. For the same compound, the GI50 (SK-OV-3 ovarian) was 82.5 µM, the TGI (SK-OV-3 ovarian) was > 100 µM and the GI50 (K-562 leukemia) was > 100 µM. For the same compound, the TGI (K-562 leukemia) was > 100 µM, the GI50 (A498 renal) was > 100 µM and the TGI (A498 renal) was > 100 µM. The GI50 (786-0 renal) was 49.5 µM, the TGI (786-0 renal) was > 100 µM and the GI50 (A549 NSCLC) was > 100 µM. For the same compound, the TGI (A549 NSCLC) was > 100 µM, the GI50 (HCC-2998 colon) was > 100 µM and the TGI (HCC-2998 colon) was > 100 µM. For the same compound, the GI50 (COLO 205 colon) was > 100 µM, the TGI (COLO 205 colon) was > 100 µM and the GI50 (BT-549 breast) was > 100 µM. For the same compound, the TGI (BT-549 breast) was > 100 µM, the GI50 (SF-268 CNS) was > 100 µM and the TGI (SF-268 CNS) was > 100 µM. The GI50 (MALME-3M melanoma) was > 100 µM, the TGI (MALME-3M melanoma) was > 100 µM and the GI50 (CAKI-1 renal) was > 100 µM. The TGI (CAKI-1 renal) was > 100 µM.
